Data on two molecules can be found in patent publication US20060008800A1, “Unc-13 in the modulation of neurotransmission and secretion events” (priority 2002, published 2006).

Assay [1] has as its system NMDA receptors. In words: Use dependent block of synaptic NMDA EPSCs by MK-801. It is filed as cell-based, mouse. The settings on record: 5 μM; 120 evoked NMDA EPSCs; Munc13-1 deficient neurons.
The test system of assay [2] is NMDA receptors. Conditions: cited from earlier work.
Assay [3] concerns hippocampal neurons. In words: β-phorbol ester induced potentiation of evoked synaptic currents in autaptic neuron cultures (patch clamp). The settings on record: for β-phorbol ester induced EPSC potentiation (synaptic potentiation): PDBU 100-1000 nM; for EPSC potentiation: PDBU. It is filed as cell-based, mouse. How it is done:
(§1) Microisland culture preparation was performed according to Bekkers and Stevens (1991). The extracellular medium contained (mM): NaCl, 167; KCl, 2.4; HEPES, 10; glucose, 10; CaCl2, 4; MgCl2, 4 (340 mOsm, pH 7.3). Solutions were applied and recordings were performed as described in Rosenmund (1995). To examine synaptically activated currents, experiments were performed using recurrent synapses (autapses) or only single autaptic neuroeses on microisland cultures at room temperature (=24° C.). Pipette solutions included (mM): KCl, 120, or K-Gluconate, 125; HEPES, 10; EGTA, 1; MgCl2, 4.6; Na4ATP, 4; Creatinephosphate, 15; creatinephosphokinase 50 U/ml (320 mOsm, pH 7.3). Wild type and Munc13-1 deficient glutamatergic hippocampal neurons were used to study the characteristics of Munc13-1 and Munc13-1 independent synapses. For these purposes, individual neurons grown on microisland beds of glial cells (Bekkers, 1991) were employed. In this autaptic culture system, where isolated nerve cells make multiple synaptic contacts, so called autapses, with their own dendritic trees, spontaneous transmitter release, release of the readily releasable vesicle pool induced by hypertonic solutions, and action potential evoked release arise from the same synapse population and can be measured readily with patch clamp techniques. Autaptic responses were obtained after brief (1-2 ms) somatic depolarization. This induces an unclamped action potential that is followed by a postsynaptic response with a delay of 2-4 ms. Excitatory, glutamatergic and inhibitory, GABAergic synaptic currents were distinguished by their characteristic pharmacological and kinetic properties. Excitatory glutamatergic cells were mainly characterized because the differential equipment of presynaptic terminals formed by the same axon with Munc13 priming factors is not apparent in GABAergic neurons.
Design of and infection with Semliki Forest Virus was done according to published procedures (Betz, 2001; Ashery, 2000). Cells were measured 22-26 h after infection.
Routinely, cells from Munc13-1^H567K/Munc13-1^H567K mutants were analyzed 12-20 day after plating and compared to wild type control cells obtained from littermates. In some experiments we employed Munc13-1/Munc13-2 double deficient neurons as model cells to study the characteristics of the Munc13-1^H567K variant in comparison to wild type Munc13-1 following overexpression using the Semliki-Forest-Virus system. In contrast to Munc13-1 deficient glutamatergic hippocampal neurons, which still show measurable glutamate release (10% of wild type levels; Augustin, 1999b), double homozygous Munc13-1/Munc13-2 deletion mutant neurons are characterized by a complete lack of spontaneous and evoked transmitter release but can be rescued by reintroduction of Munc13 proteins. This rescue approach was persued in Munc13-1/Munc13-2 double mutant neurons instead of breeding the Munc13-1^H567K/Munc 3-1^H567K mutation into the Munc13-2 deletion mutant background because it was much faster and allowed the direct comparison of additional mutant (Betz, 2001) and wild type Munc13-1 variants in the same cultures. Autaptic responses were obtained after brief (1-2 ms) somatic depolarization. This induces an unclamped action potential that is followed by a postsynaptic response with a delay of 2-4 ms. Excitatory, glutamatergic synaptic currents were identified by their characteristic pharmacological and kinetic properties.

Assay [4] deals with hippocampal neurons. Nature of the assay: Effect of PDBU on mEPSC frequency in autaptic neurons. Conditions: 1 μM PDBU. The class given is cell-based, mouse. The protocol: as §1, with “For these purposes, individual neurons grown on microisland beds of glial cells (Bekkers, 1991) were employed.” left out, “Autaptic responses were obtained after brief (1-2 ms) somatic depolarization. This induces an unclamped action potential that is followed by a postsynaptic response with a delay of 2-4 ms. Excitatory, glutamatergic and inhibitory, GABAergic synaptic currents were distinguished by their characteristic pharmacological and kinetic properties. Excitatory glutamatergic cells were mainly characterized because the differential equipment of presynaptic terminals formed by the same axon with Munc13 priming factors is not apparent in GABAergic neurons.” left out
Routinely, cells from Munc13-1^H567K/Munc13-1^H567K mutants were analyzed 12-20 day after plating and compared to wild type control cells obtained from littermates. […]

The test system of assay [5] is hippocampal neurons. In words: Readily releasable vesicle pool size by hypertonic sucrose application. The class given is cell-based, mouse. The settings on record: in response to PDBU. How it is done: Microisland culture preparation was performed according to Bekkers and Stevens (1991). The extracellular medium contained (mM): NaCl, 167; KCl, 2.4; HEPES, 10; glucose, 10; CaCl2, 4; MgCl2, 4 (340 mOsm, pH 7.3). Solutions were applied and recordings were performed as described in Rosenmund (1995). To examine synaptically activated currents, experiments were performed using recurrent synapses (autapses) or only single autaptic neuroeses on microisland cultures at room temperature (=24° C.). Pipette solutions included (mM): KCl, 120, or K-Gluconate, 125; HEPES, 10; EGTA, 1; MgCl2, 4.6; Na4ATP, 4; Creatinephosphate, 15; creatinephosphokinase 50 U/ml (320 mOsm, pH 7.3). […] In this autaptic culture system, where isolated nerve cells make multiple synaptic contacts, so called autapses, with their own dendritic trees, spontaneous transmitter release, release of the readily releasable vesicle pool induced by hypertonic solutions, and action potential evoked release arise from the same synapse population and can be measured readily with patch clamp techniques. […]
Synaptic depression in wild type neurons has been interpreted as depletion of the readily releasable pool of vesicles because pool sizes and synaptic responses are reduced in parallel during high frequency stimulation. […]

Assay [6] concerns Munc13-1 deficient hippocampal neurons. In words: EPSC augmentation following high frequency action potential trains in Munc13-1 deficient, Munc13-2 dependent neurons. It is filed as cell-based, mouse. The settings on record: 1 μM PDBU; Munc13-2 dependent cells.
The test system of another assay is PKCs. The class given is cell-based, mouse.
The mark [7] stands for this setting: 1 μM PDBU, Munc13-1^H567K/Munc13-1^H567K neurons.
Setting [8] is: Munc13-1 dominated wild type synapses.
[9] abbreviates: after 1 μM PDBU, wildtype neurons.

The structures appear in SMILES notation.

As to `C[C@]12N[C@H](Cc3ccccc31)c1ccccc12` [MK-801], the “reduction of the NMDA EPSC component” value with NMDA receptors [1] is “more than 90%”. The “synaptic NMDA receptors activated and blocked during synaptic activity” value in the assay with NMDA receptors [2] (Munc13-1 deficient cells) is recorded as 20%. In addition, the “cellular NMDA receptors activated and blocked during synaptic activity” value in the assay on NMDA receptors [2] (wild type cells) was 75%.

Take `CCCC(=O)O[C@@H]1[C@@H](C)[C@@]2(O)[C@@H](C=C(CO)C[C@]3(O)C(=O)C(C)=C[C@@H]23)[C@@H]2C(C)(C)[C@]12OC(=O)CCC` [PDBU]: in the assay with hippocampal neurons [3] (1 μM PDBU alone, wild type neurons (GÖ 6983 experiment)), the “β-PE induced increase in evoked EPSCs” value is recorded as 160±9 % of baseline values. The “increase of evoked EPSC amplitudes over baseline value” with hippocampal neurons [3] (1 μM PDBU for 1 min, wild type neurons, before bisindolylmaleimide I) came to 90±19%. Also, the “evoked EPSC amplitudes” value is recorded as 191±17 % of baseline values in the assay with hippocampal neurons [3] (1 μM PDBU for one minute, wildtype neurons) and 131±7 % of baseline values with hippocampal neurons [3] (setting [7]). The “evoked EPSCs” value is reported as 108±5 % of control levels with hippocampal neurons [3] (1 μM PDBU, Munc13-1/Munc13-2 double deficient cells overexpressing Munc13-1^H567K) and 246±22 % of control levels in the assay with hippocampal neurons [3] (1 μM PDBU, Munc13-1/Munc13-2 double deficient neurons overexpressing wild type Munc13-1). Further, the “time constant of increase in evoked EPSC amplitudes” value in the assay with hippocampal neurons [3] (setting [7]) worked out at 16 s. The “time constant of enhancement of evoked EPSC amplitudes” value with hippocampal neurons [3] (1 μM PDBU, wildtype neurons) was 8 s. The “phorbol ester induced potentiation of evoked responses” value amounted to 1.04±0.03 in the assay on hippocampal neurons [3] (PDBU 1 μM, rescue with C1-DAG binding mutant ubMunc13-2(H491K)); 2.9±0.4 fold with hippocampal neurons [3] (PDBU 1 μM, rescue with Calmodulin binding deficient mutant ubMunc13-2(W387R)); 3.9±1.1 fold in the assay on hippocampal neurons [3] (PDBU at 1 μM for 1 minute, double deficient neurons rescued with wildtype ubMunc13-2). For the same molecule, the “β-phorbol ester induced EPSC potentiation (synaptic potentiation)” value with hippocampal neurons [3] (Munc13-1 deficient, Munc13-2 dependent synapses) stood at 570±118%; in the assay on hippocampal neurons [3] (setting [8]), 199±25%. Further, the EPSC potentiation in the assay on hippocampal neurons [3] (Munc13-1/Munc13-2 double deficient neurons rescued with Munc13-1) amounted to 247±22%; in the assay on hippocampal neurons [3] (Munc13-1/Munc13-2 double deficient neurons rescued with ubMunc13-2) it was 510±83%. Moreover, the “time constant of return to baseline after removal” value in the assay on hippocampal neurons [3] (setting [9]) is recorded as 27 s. For the same molecule, the “time for synaptic amplitude to return to baseline after removal” value in the assay with hippocampal neurons [3] (setting [9]) lay within 3 to 4 min. Further, in the assay with hippocampal neurons [3] (compared with EPSCs, wild type and Munc13-1 deficient neurons), the “β-Phorbol ester induced potentiation of IPSCs” value is listed as “much less pronounced”. For the same molecule, the phorbol ester response in the assay on hippocampal neurons [3] (rescue with ubMunc13-2 deletion construct lacking the first 400 amino acids) amounted to 4.5±1.3 fold increase. Moreover, the mEPSC frequency in the assay with hippocampal neurons [4] (Munc13-1^H567K/Munc13-1^H567K cells) is recorded as 127±16 % of control levels; in the assay on hippocampal neurons [4] (wildtype neurons), 239±34 % of control levels. Also, the “increase of readily releasable vesicle pool” value was determined as 11±5% in the assay with hippocampal neurons [5] (setting [8]) and 30±15% with hippocampal neurons [5] (Munc13-2 dependent synapses). In assay [6], the “additivity of β-phorbol ester induced potentiation and train induced augmentation” value is on record as “not additive”. For the same molecule, the “phosphorylation of Munc13-1” value in the assay with PKCs is “weakly phosphorylated in a constitutive, β-PE independent manner”. In addition, the “phosphorylation of SNAP-25 and GAP-43” value in the assay on PKCs was “strongly phosphorylated”.
